Source: patent publication US10538497B2, “Compounds as indoleamine 2,3-dioxygenase inhibitors” (Merck Sharp & Dohme Corp., priority 2015, dated 2020)
pIC50: −log10 of the molar value.

How the values were obtained:
[1] = molecular target: T1, IDO1 (Homo sapiens (Human), UniProt P14902); assay: IDO1 Cellular Assay in Frozen HEK293 Cells Transiently Transfected with Human IDO1; format: cell-based; settings: HEK293 cells transiently transfected with human IDO1; read-out: IDO1 HEK293 Cell Assay, IC50
[2] = molecular target: T1, IDO1; assay: IDO1 Cellular Assay in Hela Cells Stimulated with IFNγ; format: cell-based; settings: Hela cells stimulated with IFNγ 100 ng/mL; read-out: IDO1 HELA Cell Assay, IC50
[3] = molecular target: T1, IDO1; assay: IDO1 Enzyme Assay; settings: read-out: IDO1 Enzyme Assay, IC50; HIS-tagged recombinant IDO1, 40 nM

T1 sequence (P14902 whole entry): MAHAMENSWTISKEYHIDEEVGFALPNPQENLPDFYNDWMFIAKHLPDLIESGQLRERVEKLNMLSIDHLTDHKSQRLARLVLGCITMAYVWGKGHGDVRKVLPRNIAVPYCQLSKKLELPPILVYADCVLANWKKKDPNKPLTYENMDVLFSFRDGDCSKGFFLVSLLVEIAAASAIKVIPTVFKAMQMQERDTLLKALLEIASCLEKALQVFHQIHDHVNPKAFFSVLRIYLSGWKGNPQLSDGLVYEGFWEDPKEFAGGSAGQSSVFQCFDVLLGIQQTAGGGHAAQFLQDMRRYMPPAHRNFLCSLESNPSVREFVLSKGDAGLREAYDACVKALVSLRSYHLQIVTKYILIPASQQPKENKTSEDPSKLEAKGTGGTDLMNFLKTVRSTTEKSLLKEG

| SMILES | pIC50 [1] | pIC50 [2] | pIC50 [3] |
| --- | --- | --- | --- |
| CC(C)C(O)CCSc1nonc1/C(=N/O)Nc1ccc(F)c(Br)c1 (stereo not drawn) [Example 54, N-(3-bromo-4-fluorophenyl)-N′-hydroxy-4-[(3-hydroxy-4-methylpentyl)sulfanyl]-1,2,5-oxadiazole-3-carboximidamide] | 6.69 | 6.70 | 6.48 |
| CCNc1c(NCCSc2nonc2/C(=N/O)Nc2ccc(F)c(Br)c2)c(=O)c1=O [Example 55, N-(3-bromo-4-fluorophenyl)-4-[(2-{[2-(ethylamino)-3,4-dioxocyclobut-1-en-1-yl]amino}ethyl)sulfanyl]-N′-hydroxy-1,2,5-oxadiazole-3-carboximidamide] | 6.58 | 7.17 | 7.69 |
| N=C(N)NCCSc1nonc1/C(=N/O)Nc1ccc(F)c(Br)c1 [Example 56, N-(3-bromo-4-fluorophenvl)-4-[(2-carbamimidamidoethyl)sulfanyl]-N′-hydroxy-1,2,5-oxadiazole-3-carboximidamide] | 6.67 | 7.03 | 7.38 |
| NC(CCSc1nonc1/C(=N/O)Nc1ccc(F)c(Br)c1)C(=O)O (stereo not drawn) [Example 57, S-{4-[N-(3-bromo-4-fluorophenyl)-N′-hydroxycarbamimidoyl]-1,2,5-oxadiazol-3-yl}homocysteine] | 6.44 | 6.88 | 7.53 |
| CC(=O)NCCSc1nonc1/C(=N/O)Nc1cc(Br)c(F)cc1F [Example 58, N-[2-({4-[N-(5-bromo-2,4-difluorophenyl)-N′-hydroxycarbamimidoyl]-1,2,5-oxadiazol-3-yl}sulfanyl)ethyl]acetamide] | 6.54 | 6.81 | 6.87 |
| CC(=O)NCCSc1nonc1/C(=N/O)Nc1cccc(Br)c1 [Example 59, N-[2-({4-[N-(3-bromophenyl)-N′-hydroxycarbamimidoyl]-1,2,5-oxadiazol-3-yl}sulfanyl)ethyl]acetamide] | 7.69 | 7.65 | 7.63 |
| CN/C(=C\[N+](=O)[O-])NCCSc1nonc1C(=NO)Nc1ccc(F)c(Br)c1 [Example 60, N-(3-bromo-4-fluorophenyl)-N′-hydroxy-4-[(2-{[(E)-1-(methylamino)-2-nitroethenyl]amino}ethyl)sulfanyl]-1,2,5-oxadiazole-3-carboximidamide] | 6.76 | 6.82 | 7.44 |
| O=C(CSc1nonc1/C(=N/O)Nc1ccc(F)c(Br)c1)Nc1ccccc1 [Example 61, 2-({4-[N-(3-bromo-4-fluorophenyI)-N′-hydroxycarbamimidoyl]-1,2,5-oxadiazol-3-yl}sulfanyl)-N-phenylacetamide] | 6.77 | 7.11 | 7.03 |
| CCc1cccc(N/C(=N\O)c2nonc2SCCNC(C)=O)c1 [Example 65, N-[2-({4-[N-(3-ethylphenyl)-N′-hydroxycarbamimidoyl]-1,2,5-oxadiazol-3-yl}sulfanyl)ethyl]acetamide] | 7.13 | 7.28 | 7.23 |
| O/N=C(\Nc1ccc(F)c(Br)c1)c1nonc1SC1CCNC1 (stereo not drawn) [Example 66, N-(3-bromo-4-fluorophenyl)-N′-hydroxy-4-(pyrrolidin-3-ylsulfanyl)-1,2,5-oxadiazole-3-carboximidamide] | 7.17 | 7.03 | 7.55 |
| N#CCSc1nonc1/C(=N/O)Nc1ccc(F)c(Br)c1 [Example 67, N-(3-bromo-4-fluorophenyl)-4-[(cyanomethyl)sulfanyl]-N′-hydroxy-1,2,5-oxadiazole-3-carboximidamide] | 7.75 | 7.84 | 7.41 |
| N#CC1(CSc2nonc2/C(=N/O)Nc2ccc(F)c(Br)c2)CC1 [Example 68, N-(3-bromo-4-fluorophenvl)-4-{[(1-cyanocyclopropyl)methyl]sulfanyl}-N′-hydroxy-1,2,5-oxadiazole-3-carboximidamide] | 6.97 | 7.11 | 7.02 |
| CNC(=O)CCSc1nonc1/C(=N/O)Nc1ccc(F)c(Br)c1 [Example 70, 3-({4-[N-(3-bromo-4-fluorophenyl)-N′-hydroxycarbamimidoyl]-1,2,5-oxadiazol-3-yl}sulfanyl)-N-methylpropanamide] | 7.58 | 7.68 | 7.55 |
| NS(=O)(=O)c1ccc(CCSc2nonc2/C(=N/O)Nc2ccc(F)c(Br)c2)cc1 [Example 71, N-(3-bromo-4-fluorophenyl)-N′-hydroxy-4-{[2-(4-sulfamoylphenyl)ethyl]sulfanyl}-1,2,5-oxadiazole-3-carboximidamide] | 6.96 | 7.04 | 6.39 |
| O/N=C(\Nc1ccc(F)c(Br)c1)c1nonc1SC1CCNCC1 [Example 72, N-(3-bromo-4-fluorophenyl)-N′-hydroxy-4-(piperidin-4-ylsulfanyl)-1,2,5-oxadiazole-3-carboximidamide] | 6.64 | 6.55 | 7.06 |
| Nc1c(NCCSc2nonc2/C(=N/O)Nc2ccc(F)c(Br)c2)c(=O)c1=O [Example 73, 4-({2-[(2-amino-3,4-dioxocyclobut-1-en-1-yl)amino]ethyl}sulfanyl)-N-(3-bromo-4-fluorophenyl)-N′-hydroxy-1,2,5-oxadiazole-3-carboximidamide] | 6.42 | 6.97 | 7.57 |
| O/N=C(\Nc1ccc(F)c(Br)c1)c1nonc1SCC(O)c1ccccc1 (stereo not drawn) [Example 74, N-(3-bromo-4-fluorophenyl)-N′-hydroxy-4-[(2-hydroxy-2-phenylethyl)sulfanyl]-1,2,5-oxadiazole-3-carboximidamide] | 6.24 | 6.41 | 6.30 |
| NS(=O)(=O)N1CCC(Sc2nonc2/C(=N/O)Nc2ccc(F)c(Br)c2)CC1 [Example 76, N-(3-bromo-4-fluorophenyl)-N′-hydroxy-4-[(1-sulfamoylpiperidin-4-yl)sulfanyl]-1,2,5-oxadiazole-3-carboximidamide] | 6.94 | 7.36 | 7.01 |
| NC(=O)CSc1nonc1/C(=N/O)Nc1ccc(F)c(Br)c1 [Example 77, 2-({4-[N-(3-bromo-4-fluorophenyl)-N′-hydroxycarbamimidoyl]-1,2,5-oxadiazol-3-yl}sulfanyl)acetamide] | 7.44 | 7.36 | 7.29 |
| CN1CCOC(CSc2nonc2/C(=N/O)Nc2ccc(F)c(Br)c2)C1 (stereo not drawn) [Example 78, N-(3-bromo-4-fluorophenyl)-N′-hydroxy-4-{[(4-methylmorpholin-2-yl)methyl]sulfanyl}-1,2,5-oxadiazole-3-carboximidamide] | 7.00 | 7.24 | 7.04 |
| O=C(NCCSc1nonc1/C(=N/O)Nc1ccc(F)c(Br)c1)C(F)(F)F [Example 79, N-[2-({4-[N-(3-bromo-4-fluorophenyl)-N′-hydroxycarbamimidoyl]-1,2,5-oxadiazol-3-yl}sulfanyl)ethyl]-2,2,2-trifluoroacetamide] | 7.56 | 7.62 | 7.21 |
| N#CC12CC(CSc3nonc3/C(=N/O)Nc3ccc(F)c(Br)c3)(C1)C2 [Example 80, N-(3-bromo-4-fluorophenyl)-4-{[(3-cyanobicyclo[1.1.1]pent-1-yl)methyl]sulfanyl}-N′-hydroxy-1,2,5-oxadiazole-3-carboximidamide] | 7.11 | 7.42 | 6.90 |
